# From publication PMC11864979, “First-in-class ultralong-target-residence-time p38α inhibitors as a mitosis-targeted therapy for colorectal cancer” (Nature Cancer, 2025)
# Where “and” joins values, the source holds several entries; their conditions need not be identical. Equal values may be shown once. Read-outs that look alike come from different tables or passages of the source.
# Tests used:
# [1] = system: LS 174T; assay: cell viability in human CRC cell line LS 174T; type: cell-based; settings: Homo sapiens, LS174T, 96 h
# Method: The cells were cultured at 37 °C and 7% CO2 with RPMI (KAP^2D cells) or DMEM (other cell lines), supplemented with 10% FBS and penicillin–streptomycin. […] No commonly misidentified cell lines were used. Mycoplasma contamination was excluded by a PCR-based analysis.
# [2] = system: HT-29; assay: cell viability in human CRC cell line HT-29; type: cell-based; settings: ED Fig. 9h, replicates; for viability at 0.0137 µM / viability at 0.0412 µM / viability at 0.1235 µM / viability at 0.3704 µM / viability at 1.1111 µM / viability at 3.3333 µM / viability at 10 µM: Homo sapiens; for viability at 0.0137 µM: HT-29, read-out: HT-29 Cell viability (%), 0.0137 µM; for viability at 0.0412 µM: HT-29, read-out: HT-29 Cell viability (%), 0.0412 µM; for viability at 0.1235 µM: HT-29, read-out: HT-29 Cell viability (%), 0.1235 µM; for viability at 0.3704 µM: HT-29, read-out: HT-29 Cell viability (%), 0.3704 µM; for viability at 1.1111 µM: HT-29, read-out: HT-29 Cell viability (%), 1.1111 µM; for viability at 3.3333 µM: HT-29, read-out: HT-29 Cell viability (%), 3.3333 µM; for viability at 10 µM: HT-29, read-out: HT-29 Cell viability (%), 10.0000 µM
# Method: To generate KAP^2D cells, KAP organoids were isolated from Matrigel, fragmented by mechanical dissociation and plated without any extracellular matrix on common cell culture dishes. Phoenix-Eco packaging cells (CRL-3214), HCT-15 (CCL-225), HCT 116 (CCL-247), COLO 205 (CCL-222), LS 174T (CL-188), RKO (CRL-2577) and HT-29 (HTB-38) were obtained from the American Type Culture Collection. The cells were cultured at 37 °C and 7% CO2 with RPMI (KAP^2D cells) or DMEM (other cell lines), supplemented with 10% FBS and penicillin–streptomycin. KAP^2D cells were authenticated using PCR (Kras locus and Trp53 locus). Phoenix-Eco packaging cells and HCT-15, HCT 116, COLO 205, LS 174T, RKO and HT-29 cells were authenticated by the provider using short tandem repeat profiling. No commonly misidentified cell lines were used. Mycoplasma contamination was excluded by a PCR-based analysis.
# For in vitro treatment studies, organoids were mechanically dissociated and digested using TrypLE supplemented with 100 µg ml^−1 DNaseI and 10.5 µM Y-27632 dihydrochloride (Invitrogen) at 37 °C. A total of 1,000–2,000 single cells were plated per well in white 96-well plates (Greiner) in culture medium containing 10% GFR Matrigel or Cultrex BME. The treatment with doxycycline (5 µg ml^−1), pharmacological inhibitors or corresponding volumes of DMSO was started 24 h after plating. Doxycycline was obtained from Sigma-Aldrich. […] Cell viability was measured by means of CellTiter-Glo 3D or CellTiter-Glo 2.0 reagent (Promega) according to the manufacturers’ instructions and the Infinite M Plex reader (Tecan, i-control version 3.9.1 software). Results were normalized to vehicle (DMSO) or to shNC. For cell-doubling assays, the cell number was quantified at the corresponding time points using Guava EasyCyte flow cytometer (Luminex, CytoSoft v5.2 software).
# [3] = system: KAP^2D cells; assay: EdU incorporation in KAP^2D cells; type: cell-based, mouse; settings: replicates, experiment and repetition
# Method: Immunofluorescence staining on cells and organoids was performed on glass coverslips or tissue culture chambers (Sarstedt). Organoids were plated in medium containing 10% Matrigel or Cultrex BME. The cultures were fixed with 4% paraformaldehyde and stained with specific antibodies and DAPI (Vector Labs). All used antibodies and dilutions are listed in the Nature Portfolio Reporting Summary. For analyzing DNA synthesis, the Molecular Probes Click-iT EdU Alexa Fluor 555 kit was used 24 h after EdU incorporation with DAPI counterstaining. SA-β-Gal staining of cells was performed in cell culture dishes (cells) or tissue culture chambers (organoids) after fixation with 0.5% glutaraldehyde as described above. Human cultures were incubated with X-Gal solution at pH 6.0 for ~4 h.
# [4] = system: subcutaneous KAP CRCs; assay: treatment of subcutaneous KAP tumors in wild-type mice; type: in vivo, mouse; settings: Fig. 1j, individual tumors
compound,measurement,setting,value
"O=C1c2ccc(Nc3ccc(F)cc3F)cc2CCc2ccc(OC[C@H](O)CO)cc21 [SKL, skepinone-L, reference compound]",viability at 0.1235 µM,"[1]; read-out: LS 174T Cell viability (%), 0.1235 µM, 4 d",92.9%
same,viability at 0.3704 µM,"[1]; read-out: LS 174T Cell viability (%), 0.3704 µM, 4 d",89%
same,viability at 1.1111 µM,"[1]; read-out: LS 174T Cell viability (%), 1.1111 µM, 4 d",102%
same,viability at 3.3333 µM,"[1]; read-out: LS 174T Cell viability (%), 3.3333 µM, 4 d",107%
same,viability at 10 µM,"[1]; read-out: LS 174T Cell viability (%), 10.0000 µM, 4 d",98.7%
same,HT-29 Cell viability (%),"[2]; 0.0137 µM, Repetition",103.68% and 103.86%
same,HT-29 Cell viability (%),"[2]; 0.0137 µM, first experiment",94.50% and 93.43%
same,HT-29 Cell viability (%),"[2]; 0.0412 µM, Repetition",99.67% and 99.85%
same,HT-29 Cell viability (%),"[2]; 0.0412 µM, first experiment",92.23% and 89.57%
same,HT-29 Cell viability (%),"[2]; 0.1235 µM, Repetition",103.93% and 105.17%
same,HT-29 Cell viability (%),"[2]; 0.1235 µM, first experiment",89.62% and 88.59%
same,HT-29 Cell viability (%),"[2]; 0.3704 µM, Repetition",102.88% and 105.26%
same,HT-29 Cell viability (%),"[2]; 0.3704 µM, first experiment",92.54% and 90.50%
same,HT-29 Cell viability (%),"[2]; 1.1111 µM, Repetition",104.46% and 106.93%
same,HT-29 Cell viability (%),"[2]; 1.1111 µM, first experiment",97.34% and 97.79%
same,HT-29 Cell viability (%),"[2]; 3.3333 µM, Repetition",100.17% and 95.98%
same,HT-29 Cell viability (%),"[2]; 3.3333 µM, first experiment",98.14% and 94.12%
same,HT-29 Cell viability (%),"[2]; 10.0000 µM, Repetition",26.97% and 25.38%
same,HT-29 Cell viability (%),"[2]; 10.0000 µM, first experiment",26.95% and 26.30%
same,viability at 0.0137 µM,[2]; Repetition,95.8%
same,viability at 0.0137 µM,[2]; first experiment,95.5%
same,viability at 0.0412 µM,[2]; Repetition,92.3%
same,viability at 0.0412 µM,[2]; first experiment,93.7%
same,viability at 0.1235 µM,[2]; Repetition,91.3%
same,viability at 0.1235 µM,[2]; first experiment,91.8%
same,viability at 0.3704 µM,[2]; Repetition,97.9%
same,viability at 0.3704 µM,[2]; first experiment,92.5%
same,viability at 1.1111 µM,[2]; Repetition,99.2%
same,viability at 1.1111 µM,[2]; first experiment,99.6%
same,viability at 3.3333 µM,[2]; Repetition,93.3%
same,viability at 3.3333 µM,[2]; first experiment,95.6%
same,viability at 10 µM,[2]; Repetition,28.2%
same,viability at 10 µM,[2]; first experiment,25.2%
same,EdU+ cells,[3]; Fig. 4j,82.79% and 86.90% and 76.55% and 79.03% and 85.67% and 83.92% and 75.07% and 81.04%
same,EdU+ cells,[3]; Fig. 5b,71.09% and 73.09% and 75.56% and 76.21% and 80.69% and 80.64% and 67.57% and 64.28%
same,Tumor volume (mm³),[4]; day 0 of treatment,32.0 mm³ and 62.5 mm³ (2×) and 64.0 mm³ and 75.0 mm³ and 31.5 mm³ and 56.0 mm³ (3×) and 40.0 mm³
same,Tumor volume (mm³),[4]; day 2 of treatment,56.0 mm³ and 100.0 mm³ and 75.0 mm³ and 108.0 mm³ and 36.0 mm³ and 62.5 mm³ and 64.0 mm³ (3×) and 48.0 mm³
same,Tumor volume (mm³),[4]; day 4 of treatment,100.0 mm³ and 108.0 mm³ and 87.5 mm³ and 126.0 mm³ and 48.0 mm³ and 75.0 mm³ (4×) and 56.0 mm³
same,Tumor volume (mm³),[4]; day 6 of treatment,100.0 mm³ (2×) and 112.5 mm³ and 171.5 mm³ and 144.0 mm³ and 56.0 mm³ and 75.0 mm³ (2×) and 108.0 mm³ and 62.5 mm³
same,Tumor volume (mm³),[4]; day 8 of treatment,144.0 mm³ and 180.0 mm³ (2×) and 162.0 mm³ and 72.0 mm³ and 108.0 mm³ and 126.0 mm³ and 87.5 mm³ and 112.5 mm³ (2×)
same,Tumor volume (mm³),[4]; day 10 of treatment,180.0 mm³ (2×) and 245.0 mm³ and 171.5 mm³ and 112.5 mm³ and 126.0 mm³ (3×) and 144.0 mm³ and 108.0 mm³
same,Tumor volume (mm³),[4]; day 12 of treatment,245.0 mm³ and 320.0 mm³ and 196.0 mm³ (3×) and 125.0 mm³ and 171.5 mm³ (2×) and 162.0 mm³ and 144.0 mm³
